Measured values reported in publication PMC11959706, “Allatostatin-C signaling in the crab Carcinus maenas is implicated in the ecdysis program” (The Journal of Experimental Biology, 2025).
Entries after “also recorded” stand apart in the source; their conditions may differ. Bridge positions count the residues as written; N and C are the ends. Ends that are not written are not given here.

Experiments:
AST-CRd (TR71151) = test: Aequorin luminescence receptor assay, CHO-K1-Aeq-Gα16 cells transiently expressing AST-CRd; assay type: cell-based, Carcinus maenas
From the text: (§1) The transcriptome of neural tissue of C. maenas, which has been previously assembled ([Oliphant et al., 2018]), identified four putative AST-C receptor candidates: TR71151a-d ([Oliphant et al., 2018]). These were chemically synthesized with a modified 5′ Kozak sequence (GAATTCGCCACC) and cloned in frame into a pcDNA3.1(+) plasmid vector (Genscript, Piscataway, NJ, USA). Separate aliquots of OneShot TOP10® E. coli cells (Invitrogen, Paisley, UK) were transformed with the plasmids and grown on LB plates containing 100 µg ml^−1 ampicillin overnight at 37°C. Positive clones were cultured overnight in LB broth with 100 µg ml^−1 ampicillin at 37°C and plasmids extracted using a Qiagen Plasmid Midiprep kit according to the manufacturer's instructions. Purified plasmids were re-sequenced (MWG Eurofins, Ebersberg, Germany) and analyzed using Geneious 9.1.8 ([Kearse et al., 2012]).
Chinese hamster ovary (CHO-K1) cells containing stably expressed apoaequorin (Perkin Elmer, Boston, MA) and either Gα16 or Gq subunit (control cells) were cultured in Dulbecco's Modified Eagle Medium (DMEM) F-12 Nutrient Mixture Glutamax (Gibco®) supplemented with 10% fetal bovine serum (Gibco®). Cells were maintained in vented T75 flasks at 37°C in 5% CO2. Cells grown in a monolayer to approximately 60% confluency were transfected with pcDNA 3.1 constructs using FugeneHD® (Promega) according to the manufacturer's recommendations. Transfection medium was prepared by combining 800 µl Opti-MEM® (Gibco) with 10 µg vector and the cells further incubated overnight. Cells were detached from the culture flask by incubating for 10 min in 5 ml 0.2% EDTA in PBS, washed in 10 ml clear DMEM–F-12 containing L-glutamine and 15 mmol l^−1 HEPES, centrifuged (for 5 min at 260 g) and resuspended at a concentration of 5×10^6 cells ml^−1 in 0.2 µm filtered BSA medium (DMEM–F-12 containing L-glutamine, 15 mmol l^−1 HEPES and 0.1% BSA). Coelenterazine h (Invitrogen, Paisley, UK) was added to give a concentration of 5 µmol l^−1, and the cells incubated in the dark at room temperature with gentle rocking. Before the assay, cells were further diluted (10-fold) and incubated for 60 min before use. Dried aliquots of peptides were reconstituted in BSA medium, and 50 µl added in quadruplicate to a white 96-well plate (Optiplate®, Perkin Elmer). Cell suspensions were gently stirred and injected (50 µl per well) using a Mithras LB 940 microplate reader (Berthold Technologies, Bad Wildbad, Germany) and light emission (Ca^2+ response recorded for 30 s). Cells were then lysed by injection of 50 µl per well 0.3% Triton-X in BSA medium, and light emission recorded for a further 10 s to measure total Ca^2+ response. BSA medium was used for blank measurements (six replicates per plate) and transfection with empty vectors was used for negative controls. Data were analyzed using Mikrowin 2010 v5 (Mikrotek Laborsysteme, Overath, Germany) and SigmaPlot v15 (Systat Software, Grafiti, Slough, UK).

[1] = test system: putative AST-C receptor candidates TR71151a-d other than AST-CR(d); test: Aequorin luminescence receptor assay, other putative AST-C receptor candidates; assay type: cell-based, Carcinus maenas; conditions: each candidate transiently expressed in CHO-K1-Aeq cells; 1µM peptide (Fig. S3)
From the text: as §1, with “Positive clones were cultured overnight in LB broth with 100 µg ml^−1 ampicillin at 37°C and plasmids extracted using a Qiagen Plasmid Midiprep kit according to the manufacturer's instructions.” left out
Chinese hamster ovary (CHO-K1) cells containing stably expressed apoaequorin (Perkin Elmer, Boston, MA) and either Gα16 or Gq subunit (control cells) were cultured in Dulbecco's Modified Eagle Medium (DMEM) F-12 Nutrient Mixture Glutamax (Gibco®) supplemented with 10% fetal bovine serum (Gibco®). […] Cell suspensions were gently stirred and injected (50 µl per well) using a Mithras LB 940 microplate reader (Berthold Technologies, Bad Wildbad, Germany) and light emission (Ca^2+ response recorded for 30 s). Cells were then lysed by injection of 50 µl per well 0.3% Triton-X in BSA medium, and light emission recorded for a further 10 s to measure total Ca^2+ response. […]

[2] = test system: semi-isolated heart preparations; test: Semi-isolated heart preparation bioassay; set-up: species or system Carcinus maenas; conditions: 10^−6 mol l^−1 in saline, 20°C, recorded about 2 min; four preparations
From the text: To determine possible myotropic and/or myoinhbitory activity of AST-C, AST-CC and AST-CCC, inter-molt crabs (∼65 mm carapace width) were ice-anaesthetized and rapidly decerebrated before removing all limbs and the dorsal carapace to expose the heart and pericardial cavity. The preparation was then fitted into a bowl lined with tissue, to provide a stable saline-flooded environment. The heart was connected to a force transducer (MLT0210/A) via a micro-fishing hook (size 28) and fine nylon (0.08 mm) monofilament. Connection to a PC with Chart 4.0 software was via a Bridge Pod (ML301) and Powerlab 4/20 (AD Instruments, Castle Hill, NSW, Australia). Transducer gain was set at maximum sensitivity (200 μV). Heart preparations were initially perfused with Carcinus physiological saline ([Saver et al., 1999]) at room temperature (20°C). Once a stable output was achieved, hearts were then perfused by sequentially adding approximately 2 ml saline containing AST-C, AST-CC and AST-CCC (GenScript Biotech, Piscataway, NJ, USA), and finally adding CCAP as a positive control (all peptides were at a concentration of 10^−6 mol l^−1 in saline). Each peptide addition was followed by extensive washout with saline, recording heart rate and beat amplitude for approximately 2 min after application of each peptide.

Y-organs = test: Y-organ in vitro bioassay of ecdysteroid synthesis (ecdysteroid RIA); assay type: cell-based, Carcinus maenas; conditions: native MIH 2 nmol l^−1, 24 h incubation, positive control
Protocol: To determine the possible activity of AST-C and/or AST-CC on ecdysteroid synthesis, Y-organs (YOs) were dissected from ice-anaesthetized crabs and used in the in vitro bioassay as detailed previously ([Webster, 1986]). Following 24 h incubations, culture medium was aspirated and snap frozen in liquid nitrogen prior to ecdysteroid RIA. YOs were sonicated in PBS, centrifuged (13,000 g for 5 min at room temperature) and assayed for protein concentration using a BCA protein kit (EMD Millipore, Burlington MA, USA). Protein concentrations (BSA standards) were used to normalize ecdysteroid synthesis between YO pairs.
Ecdysteroid RIAs were performed on 20 µl aliquots of culture medium using the following conditions: 100 μl 1:2000 anti-ecdysteroid serum HB-2E (a kind gift from R. D Watson, Alabama University), 100 µl H^−3 Ponasterone A [24, 25, 26, 27-3H (N), 3.5 TBq mmol^−1 (American Radiochemical Company, St Louis, MO, USA)] at 28,000 dpm per tube. 25-Deoxyecdysone (a kind gift from Prof. R. Lafont, Sorbonne University, Paris) was used as a standard (range 2500–19.5 pg per tube), and unknowns and standards were assayed in triplicate. Bound was separated from free using 50 µl per tube immobilized donkey anti-rabbit nitrocellulose suspension (Sac-Cel), as detailed for the AST-C RIA. Pellets were resuspended in 600 µl Hi-Safe 3 (Perkin Elmer) prior to counting. Using this RIA, both ecdysone and 25-deoxyecdysone (the two ecdysteroids synthesized by C. maenas YOs) were equally recognized.

AGCKNFFWKTFTSC [somatostatin, vertebrate homolog/paralog of AST-C, reference compound]
Activation of AST-CRd at saturating doses (AST-CRd (TR71151); 10, 1 µmol l^−1 peptide, quadruplicate): failed to activate; also recorded: without effect

SYWKQCAFNAVSCF-NH2 (disulfide 6-13 (inferred)) [AST-CCC, C. maenas AST-C family neuropeptide, C-terminally amidated; synthetic (GenScript)]
Activation of AST-CRd at extremely high doses (AST-CRd (TR71151); 10^−6 mol l^−1): slight activation | Luminescence response relative to the maximum response elicited by 10 µmol l^−1 AST-CC (AST-CRd (TR71151); peptide at 10 µmol l^−1, quadruplicate): less than 20% | Activation of the other candidate AST-C receptors [1]: not activated | Effect on heartbeat amplitude [2]: entirely unaffected | Effect on heartbeat frequency (heart rate) [2]: entirely unaffected

crustacean cardioactive peptide [CCAP, reference compound]
Effect on heartbeat amplitude [2]: increased amplitude | Effect on heartbeat frequency (heart rate) [2]: more than doubled

molt inhibiting hormone [reference compound]
Effect on ecdysteroid synthesis by Y-organs (Y-organs): large inhibitory effect | Effect on ecdysteroid synthesis by Y-organs (Y-organs; listed as MIH): full inhibition
